From paper PMC7004151, “Synthesis and Structure‐Activity Relationships of N‐(4‐Benzamidino)‐Oxazolidinones: Potent and Selective Inhibitors of Kallikrein‐Related Peptidase 6” (Chemmedchem, 2019)

Experiments:
Plasma stability assay = type: in vitro ADME, mouse
Experimental: Plasma stability assay: Test compound (10 μM) was incubated in pre‐warmed plasma at 37 °C (that is buffered to pH 7.4 in ratio of 70 : 30 plasma to buffer). Immediately, at time zero, then at 30, 60, 120, and 180 min, a 50 μL aliquot of the incubation mixture was removed and mixed with 200 μL acetonitrile containing Donepezil as the internal standard (50 ng/mL) to stop the reaction. The samples were centrifuged to sediment the precipitated protein and the plates then sealed prior to UPLC‐MS/MS analysis using a Quattro Premier XE (Waters Corporation, USA). XLfit (IDBS, UK) was used to calculate the exponential decay and consequently the rate constant (k) from the ratio of peak area of test compound to internal standard at each time point. The half‐life was calculated for each test compound from the rate by using the following calculation: t1/2=0.693/k

KLK6 = KLK6 (Homo sapiens, UniProt Q92876); assay: KLK6 enzymatic inhibition assay (fluorogenic Boc-Phe-Ser-Arg-AMC substrate); type: biochemical; design: made in house
Experimental: Using our previously published KLK6 assay format,21 we performed a HTS with the European Lead Factory (ELF),22 and tested ∼350,000 substances at 10 μM for their ability to reduce KLK6‐catalyzed hydrolysis of the fluorogenic Boc‐Phe‐Ser‐Arg‐AMC peptide.
High Throughput Screen: The European Lead Factory library of ∼350,000 compounds was used for high throughput screening at the Pivot Park Screening Center facilities in Oss, The Netherlands. […] For SPR, Biacore T200 was used and KLK6 was immobilized onto a CM5 chip. […] An 8 point 1 in 3 dilution series of 1 (50 μM to 0.02 μM) was also applied at the beginning and end of each screening day.
Enzyme inhibition assays: All chemicals were purchased from Sigma Aldrich (Gillingham, UK) unless otherwise stated.

CC[C@H](NC(=O)[C@H]1CN(c2ccc(C(=N)N)cc2)C(=O)O1)c1cccc2ccccc12 [Compound 32, (5R)‐3‐(4‐carbamimidoylphenyl)‐N‐((S)‐1‐(naphthalen‐1‐yl)propyl)‐2‐oxooxazolidine‐5‐carboxamide]
stability in mouse plasma (Plasma stability assay; over 3 h): no instability
half-life at 10 μM (Plasma stability assay; pH 7.4, mouse plasma, 37 °C, read-out: Mouse Plasma Stability (t1/2)): > 3 h
gain in potency for KLK6 (KLK6; relative to 5): ~100 fold
IC50 (KLK6; synthesized inhibitors (Table 3), 8.6 = assay limit, read-out: KLK6 pIC50 (converted)): 2.51 nM
